Where two headings read alike, the source gives them in different places. Ends that are not written are not given here.
B1: FMD-VP4[20-34] (peptide)
peptide: SIINNYYMQQYQNSM
modifications: not fully specified
B2: OVA335[323-335] (peptide)
peptide: ISQAVHAAHAEIN
B3: OVA339[323-339] (peptide)
peptide: ISQAVHAAHAEINEAGR
B4: OVA327[316-327] (peptide)
peptide: SSAESLKISQAV
B5: Self-peptide DQ (unlabelled competitor) (peptide)
peptide: DVNEFRAVTPLGRPDAE
B6: OVA336[325-336] (peptide)
peptide: QAVHAAHAEINE
B7: Biotinylated self-peptide DQ (peptide)
peptide: DVNEFRAVTPLGRPDAE
modifications: not fully specified

Assays:
[1] = tested on: peptide-specific T-lymphocytes from BMC of a cow homozygous for BoLA-DRB3*2703; format: cell-based, Holstein cow
BoLA-DRB3*2703 = format: binding, bovine
[2] = tested on: IFN-γ production by peptide-specific T-lymphocytes; format: cell-based, Holstein cow
[3] = tested on: CD4+ and CD8+ peptide-specific T-lymphocytes from BMC of a cow homozygous for BoLA-DRB3*2703; format: cell-based, Holstein cow
[4] = molecular target: BoLA-DRB3*2703 class II molecule (bovine)
[5] = molecular target: BoLA-DRB3*2703 class II molecule (bovine); test: competitive peptide binding to pu
[6] = molecular target: BoLA-DRB3*2703 class II molecule (bovine); test: binding of labelled peptide to pu

Molecule	DNA synthesis of T-cells compared to naive cell cultures (in words) [1]	Binding affinity (designated high or low) (BoLA-DRB3*2703)	IC50 [5]	further results
KISQAVHAAHA [OVA332]	not significantly different	Low	–	IC50 (BoLA-DRB3*2703; read-out: concentration required to inhibit BoLA class II-self-peptide binding by 50% (IC50)): > 640 µM
QAVHAAHAEINE [OVA336]	not significantly different	Low	–	IFN-γ in culture supernatant compared to the naive cell culture [2]: less; IFN-γ in culture supernatant compared to the naive cell culture ([2]; 18 h): less; cell divisions of CD8+lo T-lymphocytes compared to the naive lymphocyte culture [3]: more cell divisions
SSAESLKISQAV [OVA327]	significantly lower	Low	–	–
B1	–	–	–	IC50 [4]: 46.5 µM
B2	–	–	26.9 µM	–
B3	–	–	72.2 µM	–
B4	–	–	> 320 µM	–
B5	–	–	16.1 µM	–
B6	–	–	> 320 µM	–
B7	–	–	–	other [6]: 58.2 pixels

— PMC3238229 (Genetics, Selection, Evolution : GSE, 2003)
